In patent publication US11001564B2, “Substituted chromane-8-carboxamide compounds and analogues thereof, and methods using same” (priority 2016, dated 2021):
Structures can show the parent of a compound that is named as a salt. Where two headings read alike, the source gives them in different places.

System: HBV rcDNA in HepDE19 cells
Test: HepDE19 assay with bDNA quantitation of HBV rcDNA
Assay type: cell-based, hepatitis B virus (HBV)
Experimental: HepDE19 Assay with bDNA Quantitation of HBV rcDNA:
HepDE19 cell culture system is a HepG2 (human hepatocarcinoma) derived cell line that supports HBV DNA replication and cccDNA formation in a tetracycline (Tet)-regulated manner and produces HBV rcDNA and a detectable reporter molecule dependent on the production and maintenance of cccDNA (Guo, et al., 2007, J. Virol. 81:12472-12484).
HepDE19 (50,000 cells/well) were plated in 96 well collagen-coated tissue-culture treated microtiter plates in DMEM/F12 medium supplemented with 10% fetal bovine serum, 1% penicillin-streptomycin and 1 μg/mL tetracycline and incubated in a humidified incubator at 37° C. and 5% CO2 overnight. Next day, the cells were switched to fresh medium without tetracycline and incubated for 4 hours at 37° C. and 5% CO2. The cells were treated with fresh Tet-free medium with compounds at concentrations starting at 25 μM and a serial, ½ log, 8-point, titration series in duplicate. The final DMSO concentration in the assay was 0.5%. The plates were incubated for 7 days in a humidified incubator at 37° C. and 5% CO2. Following a 7 day-incubation, the level of rcDNA present in the inhibitor-treated wells was measured using a Quantigene 2.0 bDNA assay kit (Affymetrix, Santa Clara, Calif.) with HBV specific custom probe set and manufacturers instructions. Concurrently, the effect of compounds on cell viability was assessed using replicate plates, plated at a density of 5,000 cells/well and incubated for 4 days, to determine the ATP content as a measure of cell viability using the cell-titer glo reagent (CTG; Promega Corporation, Madison, Wis.) as per manufacturer's instructions. The plates were read using a Victor luminescence plate reader (PerkinElmer Model 1420 Multilabel counter) and the relative luminescence units (RLU) data generated from each well was calculated as % inhibition of the untreated control wells and analyzed using XL-Fit module in Microsoft Excel to determine EC50 and EC90 (bDNA) and CC50 (CTG) values using a 4-parameter curve fitting algorithm.
Representative compounds of the invention were tested for their ability to inhibit formation of relaxed circular DNA (rcDNA) in a HepDE19 assay, as described elsewhere herein.

[1] = Hepatitis B virus, HepDE19, 168 h, read-out: DE-19 bDNA EC50, HepDE19 cells, 7 day incubation, rcDNA by Quantigene 2.0 bDNA assay
[2] = HepDE19 cells, 7 day incubation, rcDNA by Quantigene 2.0 bDNA assay, read-out: DE-19 bDNA EC50
[3] = Hepatitis B virus, HepDE19, 168 h, HepDE19 cells, 7 day incubation, rcDNA by Quantigene 2.0 bDNA assay, read-out: DE-19 bDNA EC50

| SMILES | EC50 [3] [µM] | further results |
| --- | --- | --- |
| CNC(=O)N[C@H]1CCOc2c(C(=O)Nc3ccc(F)c(F)c3)ccc(F)c21 [Compound 40, (S)—N-(3,4-difluorophenyl)-5-fluoro-4-(3-methylureido)chromane-8-carboxamide] |  | EC50 [1]: 0.67 µM |
| CN1CCC(NC(=O)OCc2ccccn2)c2cccc(C(=O)Nc3ccc(F)c(F)c3)c21 (single isomer, unassigned) [Compound 180, Pyridin-2-ylmethyl (8-((3,4-difluorophenyl)carbamoyl)-1-methyl-1,2,3,4-tetrahydroquinolin-4-yl)carbamate] |  | EC50 [2]: 15 µM |
| O=C(Nc1ccc(F)c(F)c1)c1cccc2c1OCCC2c1cnccn1 (stereo not shown) [Compound 97, N-(3,4-difluorophenyl)-4-(pyrazin-2-yl)chromane-8-carboxamide] | 16 |  |
| COC(=O)N[C@H]1CCOc2c1ccc(Cl)c2C(=O)Nc1ccc(F)c(F)c1 [Compound 83, Methyl (S)-(7-chloro-8-((3,4-difluorophenyl)carbamoyl)chroman-4-yl)carbamate] |  | EC50 [1]: 5.4 µM |
| O=C(N[C@H]1CCOc2c(C(=O)Nc3ccc(F)c(Cl)c3)cccc21)OCc1cnccn1 [Compound 112, Pyrazin-2-ylmethyl (S)-(8-((3-chloro-4-fluorophenyl)carbamoyl)chroman-4-yl)carbamate] | 0.77 |  |
| O=C(N[C@H]1CCOc2c(C(=O)Nc3ccc(F)c(Cl)c3)ccc(F)c21)OCc1ccccn1 [Compound 105, Pyridin-2-ylmethyl (S)-(8-((3-chloro-4-fluorophenyl)carbamoyl)-5-fluorochroman-4-yl)carbamate] | 0.37 |  |
| O=C(N[C@H]1CCOc2c(C(=O)Nc3ccc(F)c(Cl)c3)ccc(F)c21)OCC(=O)N1CCCC1 [Compound 160, 2-Oxo-2-(pyrrolidin-1-yl)ethyl (S)-(8-((3-chloro-4-fluorophenyl)carbamoyl)-5-fluorochroman-4-yl)carbamate] | 0.42 |  |
| COC(=O)N[C@H]1CCOc2c(C(=O)Nc3ccc(F)c(OC)c3)ccc(F)c21 [Compound 128, Methyl (S)-(5-fluoro-8-((4-fluoro-3-methoxyphenyl)carbamoyl)chroman-4-yl)carbamate] | 1.2 |  |
| CN1CCCC(COC(=O)N[C@H]2CCOc3c(C(=O)Nc4ccc(F)c(F)c4)cccc32)C1 (single isomer, unassigned) [Compound 99] |  | EC50 [2]: 25 µM |
| O=C(N[C@H]1CCOc2c(C(=O)Nc3ccc(F)c(F)c3)cccc21)OCC1CCNC1 (single isomer, unassigned) [Compound 108] | 21 |  |
| COCC(=O)N[C@H]1CCOc2c(C(=O)Nc3ccc(F)c(C)c3)ccc(F)c21 [Compound 129, (4S)-5-Fluoro-N-(4-fluoro-3-methylphenyl)-4-(2-methoxyacetamido)-3,4-dihydro-2H-1-benzopyran-8-carboxamide] | 2.5 |  |
| CC(=O)NCCOC(=O)N[C@H]1CCOc2c(C(=O)Nc3ccc(F)c(C)c3)ccc(F)c21 [Compound 146, 2-Acetamidoethyl (S)-(5-fluoro-8-((4-fluoro-3-methylphenyl)carbamoyl)chroman-4-yl)carbamate] | 0.61 |  |
| O=C(N[C@H]1CCOc2c1ccc(F)c2C(=O)Nc1ccc(F)c(F)c1)OCc1ccccn1 [Compound 59, (S)-Pyridin-2-ylmethyl (8-((3,4-difluorophenyl)carbamoyl)-7-fluorochroman-4-yl)carbamate] | 5.3 |  |
| COC(=O)N[C@H]1CCOc2c1ccc(F)c2C(=O)Nc1ccc(F)c(Cl)c1 [Compound 74, (S)-Methyl (8-((3-chloro-4-fluorophenyl)carbamoyl)-7-fluorochroman-4-yl)carbamate] |  | EC50 [1]: 1.9 µM |
| O=C(N[C@@H]1CCOc2c(C(=O)Nc3ccc(F)c(F)c3)cccc21)OCc1ccccn1 [Compound 28, pyridin-2-ylmethyl (R)-(8-((3,4-difluorophenyl)carbamoyl)chroman-4-yl)carbamate] | 15 |  |
| O=C1CC[C@H](COC(=O)N[C@H]2CCOc3c(C(=O)Nc4ccc(F)c(Cl)c4)ccc(F)c32)N1 [Compound 155, ((R)-5-Oxopyrrolidin-2-yl)methyl ((S)-8-((3-chloro-4-fluorophenyl)carbamoyl)-5-fluorochroman-4-yl)carbamate] | 1.2 |  |
| COC(=O)N[C@H]1CCOc2c(C(=O)Nc3ccc(F)c(F)c3)ccc(F)c21 [Compound 38, methyl (S)-(8-((3,4-difluorophenyl)carbamoyl)-5-fluorochroman-4-yl)carbamate] |  | EC50 [1]: 0.57 µM |
| O=C1CCOc2c1c(F)cc(F)c2C(=O)Nc1ccc(F)c(F)c1 [Compound 110, N-(3,4-difluorophenyl)-5,7-difluoro-4-oxochromane-8-carboxamide] | 1.6 |  |
| Cc1cc(NC(=O)c2ccc(F)c3c2OCC[C@@H]3NC(=O)OC[C@@H]2CC(=O)N2)ccc1F [Compound 147, ((S)-4-Oxoazetidin-2-yl)methyl ((S)-5-fluoro-8-((4-fluoro-3-methylphenyl)carbamoyl)chroman-4-yl)carbamate] | 0.84 |  |
| COCCOC(=O)N[C@H]1CCOc2c(C(=O)Nc3ccc(F)c(F)c3)cccc21 [Compound 22, 2-Methoxyethyl (8-((3,4-difluorophenyl)carbamoyl)chroman-4-yl) carbamate] |  | EC50 [1]: 4.7 µM |
| O=C(Nc1ccc(F)c(F)c1)c1cccc2c1OCCC2c1ncccn1 (stereo not shown) [Compound 71, N-(3,4-difluorophenyl)-4-(pyrimidin-2-yl)chromane-8-carboxamide] | 12 |  |
| CN1CCC(NC(=O)OCc2ccccn2)c2cccc(C(=O)Nc3ccc(F)c(Cl)c3)c21 (single isomer, unassigned) [Compound 182, Pyridin-2-ylmethyl (8-((3-chloro-4-fluorophenyl)carbamoyl)-1-methyl-1,2,3,4-tetrahydroquinolin-4-yl)carbamate] |  | EC50 [2]: 12 µM |
| CCOC(=O)N[C@H]1CCOc2c(C(=O)Nc3ccc(F)c(F)c3)cccc21 [Compound 18, Ethyl (8-((3,4-difluorophenyl)carbamoyl)chroman-4-yl)carbamate] |  | EC50 [1]: 6.6 µM |
| CN(C)S(=O)(=O)N1CCC(COC(=O)N[C@H]2CCOc3c(C(=O)Nc4ccc(F)c(Cl)c4)ccc(F)c32)CC1 [Compound 163, (1-(N,N-dimethylsulfamoyl)piperidin-4-yl)methyl (S)-(8-((3-chloro-4-fluorophenyl)carbamoyl)-5-fluorochroman-4-yl)carbamate] |  | EC50 [1]: 1 µM |
| Cc1cc(NC(=O)c2ccc(F)c3c2OCC[C@@H]3NC(=O)NCCC(=O)O)ccc1F [Compound 152, (S)-3-(3-(5-Fluoro-8-((4-fluoro-3-methylphenyl)carbamoyl)chroman-4-yl)ureido)propanoic acid] | 15 |  |
| O=C(NC1CCNc2c(C(=O)Nc3ccc(F)c(F)c3)cccc21)OCc1ccccn1 (stereo not shown) [Compound 175, pyridin-2-ylmethyl (8-((3,4-difluorophenyl)carbamoyl)-1,2,3,4-tetrahydroquinolin-4-yl)carbamate] | 12 |  |
| O=C(Nc1ccc(F)c(F)c1)c1cccc2c1OCCC2c1cccnc1 (stereo not shown) [Compound 63, N-(3,4-difluorophenyl)-4-(pyridin-3-yl)chromane-8-carboxamide] | 14 |  |
| COc1cccc(COC(=O)N[C@H]2CCOc3c(C(=O)Nc4ccc(F)c(F)c4)cccc32)n1 [Compound 111, (6-Methoxypyridin-2-yl)methyl (S)-(8-((3,4-difluorophenyl)carbamoyl)chroman-4-yl)carbamate hydrochloride] |  | EC50 [1]: 2.7 µM |
